Assay results from patent US8703787B2, “Methods of using ALK inhibitors” (IRM LLC, priority 2011, dated 2014).

Key:
[1] = tested on: NCI-H2228 cells; test: In vitro cell growth and proliferation (luciferase readout); assay type: cell-based; conditions: Homo sapiens, 72 h; NCI-H2228 with EML4-ALK, luciferase-expressing, 3 days incubation
Experimental: NCI-H2228 cells were obtained from the American Type Culture Collection (ATCC) (Manassa, USA) and modified by viral infection to stably express luciferase. For cell growth and proliferation assays, 2250 cells in 50 μL of RPMI media (Gibco, Carlsbad, Calif.) containing 10% fetal bovine serum (FBS) (Gibco, Carlsbad, Calif.) were plated into solid bottom, white 384-well plates (Corning, Acton, Mass.) using μ-Fill instrumentation (Bio-Tek). Plates were incubated 1 hour in a 37° C. tissue culture incubator prior to the addition of compound using MiniTrak instrumentation (Perkin-Elmer). 50 nL of a 1:3 dilution plate of compounds was added to the assay plates, resulting in final concentrations of 10000, 3333, 1111, 370, 123, 41, 14, 4.6, 1.5, 0.5 and 0.17 nM. After compound addition, plates were incubated for 3 days at 37° C. in a tissue culture incubator. At day 3, plates were assayed for cell growth and proliferation by means of measuring luciferase activity in each individual well. In detail, 25 μL of BRIGHT-GLO® (Promega, Madison, Wis.) or BRITELITE™ (PerkinElmer, Waltham, Mass.) was added to each well. After 10 minutes of incubation at room temperature, plates were read using either an Analyst-GT or an Envision plate reader (Molecular Devices, Sunnyvale, Calif.). […]

[2] = tested on: NCI-H2228 tumors; test: Subcutaneous xenograft tumor model derived from NCI-H2228 cells; assay type: in vivo, mouse
Description: The day of implantation, NCI-H2228 cells were harvested with 0.05% Trypsin/EDTA and resuspended in a mixture of RPMI 1640 serum-free medium and matrigel (BD Biosciences #354234, La Jolla, Calif.) at a ratio of 1:1. Five million cells were subcutaneously implanted into the right hind flank of SCID beige mouse. When the tumor size reached a volume of 300-400 mm3, the tumors were harvested and were cut into smaller pieces of 1-2 mm3 in culture medium for passage implanting subcutaneously. After the tumors were consecutively passaged three times in SCID beige mice, the tumors were considered as stock tumors for study implantation. The tumor pieces were kept in a mixture of RPMI1640 serum-free medium and matrigel at a ratio of 1:1 on wet ice for implanting in SCID beige mice. Implantation in […] mice: 2-3 pieces of the tumor with matrigel mixture were subcutaneously implanted into the right flank of the mice. After implantation, the tumors were callipered 3 times per week once tumors became palpable.
SCID beige mice bearing the H2228 tumors were randomized into 5 groups (n=4 mice per group) with an average tumor volume of 85±35 mm3. The test compound was administered by oral gavage. Its exposure in the tumor bearing female SCID beige mice was evaluated on day 14. Tumor growth was calculated by % T/C as follows: % T/C=(ΔT/ΔC)×100, where ΔT>0; or % T/C=(ΔT/ΔTI)×100, where ΔT<0. Changes in tumor volume (Δ volumes) for each treated (T) and control (C) group were calculated for each day tumors were measured by subtracting the median tumor volume on the day of first treatment (staging day) from the median tumor volume on the specified observation day.

[3] = tested on: crizotinib resistant NCI-H2228 tumors; test: Anti-tumor activity in crizotinib resistant NCI-H2228 xenograft tumors; assay type: in vivo, mouse
Experimental: The mouse xenograft tumors derived from NCI-H2228 were treated with crizotinib continuously at 50 mg/kg for 9 days, then 75 mg/kg for 9 days and then 100 mg/kg for 33 days. Alternatively, after xenograft tumors derived from NCI-H2228 were treated with crizotinib for 14 days at 100 mg/kg, the treatment with crizotinib was stopped for a few days until tumors re-grew. Once tumors re-grew, animals were treated with crizotinib at 100 mg/kg until tumors became resistant to crizotinib treatment. Tumors from individual animal were harvested when they became resistant to crizotinib. A few such resistant tumors were randomly selected for further studies as described below. Each resistant tumor were cut into small pieces at harvest and implanted into 5 animals; when tumor size was big enough in the 5 animals, the tumors were harvested and then implanted into 25 animals for compound testing. A piece of harvested tumors was also used for RNA extraction and subsequently sequencing of EML4-ALK transcript.

[4] = 4-wk GLP toxicology studies / exposure comparison; assay type: in vivo; conditions: based on 4-wk GLP toxicology studies, predicted

Row | SMILES | IC50 [1] [nM] | animal body weight loss ([2]; dosed orally at 25 mg/kg once a day for 2 weeks) | anti-tumor activity (tumor regression) ([2]; dosed orally at 25 mg/kg once a day for 2 weeks, FIG. 1) | tolerability ([2]; mouse, in vivo, po, 25 mg/kg) | anti-tumor growth activity in crizotinib resistant NCI-H2228 ([3]; FIG. 2) | activity compared with crizotinib at 100 mg/kg ([3]; other crizotinib resistant NCI-H2228 tumors, FIG. 3) | exposure associated with 50 mg/kg in mouse relative to exposure at the MTD in humans [4]
1 | Cc1cc(Nc2ncc(Cl)c(Nc3ccccc3S(=O)(=O)C(C)C)n2)c(OC(C)C)cc1C1CCNCC1 [Compound 1, 5-chloro-N2-(2-isopropoxy-5-methyl-4-(piperidin-4-yl)phenyl)-N4-[2-(propane-2-sulfonyl)-phenyl]-pyrimidine-2,4-diamine] | 11 | not observed | complete tumor regression | well tolerated | significant anti-tumor growth activity | better activity than crizotinib | below the exposure at the MTD in humans
2 | CC(C)Oc1cc2c(cc1Nc1ncc(Cl)c(Nc3ccccc3S(=O)(=O)C(C)C)n1)C(=O)N(C1CCN(C)CC1)C2 [Compound 6, 6-{5-Chloro-4-[2-(propane-2-sulfonyl)-phenylamino]-pyrimidin-2-ylamino}-5-isopropoxy-2-(1-methyl-piperidin-4-yl)-2,3-dihydro-isoindol-1-one] | 16 |  |  |  |  |  | 
